Literature values, collected in US6362169B1 (priority 1998, dated 2002).

Tested on: Helicobacter pylori
Conditions: combination use with a proton pump inhibitor or a bismuth preparation (WO 97/02039)

## CO[C@H]1/C=C/O[C@@]2(C)Oc3c(C)c(O)c4c(c3C2=O)C2=NC3(CCN(CC(C)C)CC3)NC2=C(NC(=O)/C(C)=C\C=C\[C@H](C)[C@H](O)[C@@H](C)[C@@H](O)[C@@H](C)[C@H](OC(C)=O)[C@@H]1C)C4=O [Rifabutin, rifabutin]
  effect on minimum inhibitory concentration by combination use: synergistic effect
